Results published in the NIST ThermoML archive (doi:10.1016/j.jct.2018.03.016).

Conditions: Liquid; for mass density: Vibrating tube method; for speed of sound: Frequency=5 MHz, Single path-length method

CCC(=O)[O-].[NH3+]CCO [2-hydroxyethan-1-aminium propionate]
Conditions	mass density [kg/m3]	speed of sound [m/s]
298.08 K, 10000 kPa	1124.9	–
298.1 K, 30000 kPa	1131.1	–
298.11 K, 15000 kPa	1127.6	–
298.13 K, 35000 kPa	1132.5	–
298.15 K, 20000 kPa	1128.2	–
298.15 K, 25000 kPa	1129.4	–
298.16 K, 100 kPa	1121.1	–
303.03 K, 30000 kPa	1126.3	–
303.07 K, 25000 kPa	1124.9	–
303.07 K, 35000 kPa	1127.2	–
303.09 K, 10000 kPa	1121	–
303.09 K, 15000 kPa	1121.8	–
303.1 K, 20000 kPa	1123.3	–
303.15 K, 100 kPa	1116	1554.7
303.15 K, 1000 kPa	–	1558.7
303.15 K, 2000 kPa	–	1562.7
303.15 K, 3000 kPa	–	1566.7
303.15 K, 4000 kPa	–	1570.7
303.15 K, 5000 kPa	–	1574.7
303.15 K, 6000 kPa	–	1578.8
303.15 K, 7000 kPa	–	1582.9
303.15 K, 8000 kPa	–	1587
303.15 K, 9000 kPa	–	1591.1
303.15 K, 10000 kPa	–	1595.2
303.15 K, 11000 kPa	–	1599.4
303.15 K, 12000 kPa	–	1602.1
303.15 K, 13000 kPa	–	1606.3
303.15 K, 14000 kPa	–	1610.5
303.15 K, 15000 kPa	–	1613.3
303.15 K, 16000 kPa	–	1617.6
303.15 K, 17000 kPa	–	1620.4
303.15 K, 18000 kPa	–	1624.6
303.15 K, 19000 kPa	–	1628.9
303.15 K, 20000 kPa	–	1633.2
313.14 K, 100 kPa	1105.3	–
313.15 K, 100 kPa	–	1526.8
313.15 K, 1000 kPa	–	1531.9
313.15 K, 2000 kPa	–	1535.7
313.15 K, 3000 kPa	–	1539.5
313.15 K, 4000 kPa	–	1542.1
313.15 K, 5000 kPa	–	1546
313.15 K, 6000 kPa	–	1549.9
313.15 K, 7000 kPa	–	1553.8
313.15 K, 8000 kPa	–	1557.8
313.15 K, 9000 kPa	–	1561.7
313.15 K, 10000 kPa	–	1565.7
313.15 K, 11000 kPa	–	1569.7
313.15 K, 12000 kPa	–	1573.7
313.15 K, 13000 kPa	–	1577.7
313.15 K, 14000 kPa	–	1581.7
313.15 K, 15000 kPa	–	1585.8
313.15 K, 16000 kPa	–	1589.9
313.15 K, 17000 kPa	–	1594
313.15 K, 18000 kPa	–	1598.1
313.15 K, 19000 kPa	–	1602.2
313.15 K, 20000 kPa	–	1606.4
313.16 K, 15000 kPa	1111.3	–
313.17 K, 10000 kPa	1110.2	–
313.17 K, 35000 kPa	1117.8	–
313.18 K, 20000 kPa	1113.3	–
313.18 K, 30000 kPa	1116.2	–
313.19 K, 25000 kPa	1114.8	–
323.09 K, 10000 kPa	1098.3	–
323.1 K, 100 kPa	1093	–
323.1 K, 25000 kPa	1103.9	–
323.12 K, 30000 kPa	1105.5	–
323.14 K, 15000 kPa	1099.7	–
323.14 K, 20000 kPa	1102	–
323.14 K, 35000 kPa	1107.3	–
323.15 K, 100 kPa	–	1506.1
323.15 K, 1000 kPa	–	1509.8
323.15 K, 2000 kPa	–	1513.6
323.15 K, 3000 kPa	–	1517.3
323.15 K, 4000 kPa	–	1521.1
323.15 K, 5000 kPa	–	1524.9
323.15 K, 6000 kPa	–	1528.7
323.15 K, 7000 kPa	–	1533.8
323.15 K, 8000 kPa	–	1537.6
323.15 K, 9000 kPa	–	1541.5
323.15 K, 10000 kPa	–	1545.4
323.15 K, 11000 kPa	–	1549.2
323.15 K, 12000 kPa	–	1553.2
323.15 K, 13000 kPa	–	1558.4
323.15 K, 14000 kPa	–	1562.3
323.15 K, 15000 kPa	–	1566.3
323.15 K, 16000 kPa	–	1568.9
323.15 K, 17000 kPa	–	1572.9
323.15 K, 18000 kPa	–	1576.9
323.15 K, 19000 kPa	–	1581
323.15 K, 20000 kPa	–	1585
333.08 K, 35000 kPa	1096.1	–
333.09 K, 10000 kPa	1084.9	–
333.09 K, 15000 kPa	1087.4	–
333.09 K, 25000 kPa	1091.8	–
333.09 K, 30000 kPa	1093.9	–
333.1 K, 20000 kPa	1089.7	–
333.12 K, 100 kPa	1079.6	–
333.15 K, 100 kPa	–	1474.9
333.15 K, 1000 kPa	–	1479.7
333.15 K, 2000 kPa	–	1484.6
333.15 K, 3000 kPa	–	1488.3
333.15 K, 4000 kPa	–	1493.2
333.15 K, 5000 kPa	–	1497
333.15 K, 6000 kPa	–	1501.9
333.15 K, 7000 kPa	–	1505.7
333.15 K, 8000 kPa	–	1509.5
333.15 K, 9000 kPa	–	1514.5
333.15 K, 10000 kPa	–	1518.3
333.15 K, 11000 kPa	–	1523.3
333.15 K, 12000 kPa	–	1527.2
333.15 K, 13000 kPa	–	1531
333.15 K, 14000 kPa	–	1534.9
333.15 K, 15000 kPa	–	1540
333.15 K, 16000 kPa	–	1543.8
333.15 K, 17000 kPa	–	1547.7
333.15 K, 18000 kPa	–	1551.6
333.15 K, 19000 kPa	–	1555.5
333.15 K, 20000 kPa	–	1559.5
343.15 K, 100 kPa	–	1449.3
343.15 K, 1000 kPa	–	1453
343.15 K, 2000 kPa	–	1456.8
343.15 K, 3000 kPa	–	1461.8
343.15 K, 4000 kPa	–	1466.7
343.15 K, 5000 kPa	–	1471.7
343.15 K, 6000 kPa	–	1475.5
343.15 K, 7000 kPa	–	1480.5
343.15 K, 8000 kPa	–	1485.5
343.15 K, 9000 kPa	–	1489.3
343.15 K, 10000 kPa	–	1494.3
343.15 K, 11000 kPa	–	1499.4
343.15 K, 12000 kPa	–	1503.2
343.15 K, 13000 kPa	–	1508.2
343.15 K, 14000 kPa	–	1513.3
343.15 K, 15000 kPa	–	1517.2
343.15 K, 16000 kPa	–	1522.2
343.15 K, 17000 kPa	–	1526.1
343.15 K, 18000 kPa	–	1530
343.15 K, 19000 kPa	–	1533.8
343.15 K, 20000 kPa	–	1537.7
343.17 K, 100 kPa	1066	–
343.17 K, 20000 kPa	1076.6	–
343.17 K, 25000 kPa	1079	–
343.17 K, 30000 kPa	1081.8	–
343.18 K, 15000 kPa	1074.3	–
343.18 K, 35000 kPa	1084.1	–
343.19 K, 10000 kPa	1070.6	–
353.15 K, 100 kPa	–	1416
353.15 K, 1000 kPa	–	1421
353.15 K, 2000 kPa	–	1426.1
353.15 K, 3000 kPa	–	1431.2
353.15 K, 4000 kPa	–	1436.3
353.15 K, 5000 kPa	–	1441.4
353.15 K, 6000 kPa	–	1446.5
353.15 K, 7000 kPa	–	1451.7
353.15 K, 8000 kPa	–	1456.8
353.15 K, 9000 kPa	–	1463.1
353.15 K, 10000 kPa	–	1467
353.15 K, 11000 kPa	–	1473.3
353.15 K, 12000 kPa	–	1478.4
353.15 K, 13000 kPa	–	1482.4
353.15 K, 14000 kPa	–	1487.5
353.15 K, 15000 kPa	–	1492.6
353.15 K, 16000 kPa	–	1496.5
353.15 K, 17000 kPa	–	1500.4
353.15 K, 18000 kPa	–	1504.4
353.15 K, 19000 kPa	–	1509.5
353.15 K, 20000 kPa	–	1513.3
